In PMC10992195, “Identification, heterologous expression and characterization of a new unspecific peroxygenase from Marasmius fiardii PR-910” (Bioresources and Bioprocessing, 2024):
Counter-ions that a name gives are not always drawn. Like-named read-outs stand apart in the source and are kept apart here.

Key:
rMfiUPO [1] = tested on: T1, rMfiUPO; details: 2 mM H2O2 co-substrate; 30 °C; optimal pH (pH 4.0 optimum in text; pH 4.5 sodium citrate in Fig. 4 legend)
T1 construct: gene MfiUPO

rMfiUPO [2] = tested on: T2, rMfiUPO; test: spectrophotometric 4-nitrocatechol formation, […] nm, Michaelis-Menten fit; type: biochemical, Marasmius fiardii PR-910; details: 2 mM H2O2 co-substrate; 30 °C; pH 7.0 potassium phosphate
T2 construct: gene MfiUPO; full-length codon-optimised gene with native signal peptide, secreted by Pichia pastoris X33 (pPICZ-A); purified, glycosylated, 40-55 kDa smear, about 35 kDa after Endo H; short-type UPO, heme-thiolate

rMfiUPO [3] = tested on: T2, rMfiUPO; test: spectrophotometric veratraldehyde formation, […] nm, Michaelis-Menten fit; type: biochemical, Marasmius fiardii PR-910; details: 2 mM H2O2 co-substrate; 30 °C; pH 6.0 potassium phosphate

Question: How did the Km (rMfiUPO [1]) turn out when `CCn1c(=NN=c2sc3cc(S(=O)(=O)O)ccc3n2CC)sc2cc(S(=O)(=O)O)ccc21` [ABTS, 2,2ʹ-azinobis (3-ethylbenzothiazoline-6-sulfonic acid) diammonium salt] was run?
Answer: 22 ± 7 µM

Question: `O=[N+]([O-])c1ccc2c(c1)OCO2` [NBD, 5-nitro-1,3-benzodioxole] was tested. Which Km (rMfiUPO [2]) did it give?
Answer: 93 ± 14 µM

Question: For `COc1ccc(CO)cc1OC` [VA], which Km (rMfiUPO [3]) is on record?
Answer: 392 ± 109 µM
